Values quoted from earlier work as cited in patent US5503831A, “Lipase inhibitor derived from a defatted rice germ” (Yakurigaku Chuo Kenkyusho, priority 1993, dated 1996).

Test system: lipase
Conditions: in the presence of bile acids (sodium taurocholic acid for wheat germ protein), emulsified lipids

| Substance | Action on lipase in the presence of bile acids |
| --- | --- |
| β-lactoglobulin | does not exert such an action |
| serum albumin | does not exert such an action |
